Legend:
[1] = biological target: immunoproteasome LMP7/B5i subunit (Homo sapiens, UniProt P20618+P28062); assay: Caliper-based proteasome enzymatic activity assay, LMP7; assay type: biochemical; settings: human recombinant immunoproteasome 0.3 nM, FAM-peptide substrate 1 μM, 3 h at rt
Protocol: (§1) A Caliper-based proteasome assay (Caliper Life Sciences, Hopkinton, Mass.) was used to measure inhibition of the immunoproteasome LMP7/B5i subunit, the immunoproteasome LPM2/β1i subunit, and the constitutive proteasome β5c unit for a compound of Formula (I). For LMP7 and β5c, serial dilutions of test compounds were incubated with either human recombinant immunoprotcasome or constitutive proteasome (0.3 nM enzyme) and a carboxyfluorescein (FAM)-labeled peptide substrate FAM-TYETFKSIMKKSPF-NH2 (1 μM) at it for 3 h. The reaction was then terminated with a buffer containing the known proteasome inhibitor carfilzomib at a concentration of 5 uM. For LMP2, serial dilutions of test compounds were incubated with human recombinant immunoproteasome proteasome (0.3 nM enzyme) and a carboxyfluorescein (FAM)-labeled peptide substrate FAM-[…]-NH2 (1 μM) at rt for 2 h. The reaction was then terminated with a buffer containing the known proteasome inhibitor ixazomib at a concentration of 6.7 uM. The reaction buffer was 20 mM Hepes pH 7.4, 0.01% bovine serum albumin, 0.015% SDS, 0.5 mM EDTA, 1%0/DMSO. The peptide cleavage reaction product was quantified on a Caliper LabChip 3000. Percent inhibition was calculated for each compound dilution and the concentration that produced 50% inhibition was calculated. This value is presented as the IC50.

[2] = biological target: constitutive proteasome β5c unit (Homo sapiens, UniProt P20618+P28074); assay: Caliper-based proteasome enzymatic activity assay, β5c; assay type: biochemical; settings: human recombinant constitutive proteasome 0.3 nM, FAM-peptide substrate 1 μM, 3 h at rt; read-out: β5c subunit IC50
Protocol: as §1

Row | SMILES | IC50 [1] | IC50 [2]
1 | CC(C)(C=C(C#N)C(=O)N1CCCC[C@@H]1COC(=O)N[C@@H](Cc1coc2ccccc12)B(O)O)N1CCC(F)(F)CC1 [Example 66, ((R)-2-(benzofuran-3-yl)-1-(((((R)-1-(2-cyano-4-(4,4-difluoropiperidin-1-yl)-4-methylpent-2-enoyl)piperidin-2-yl)methoxy)carbonyl)amino)ethyl)boronic acid] | 2.1 nM | 217 nM
2 | CC(C)(C=C(C#N)C(=O)N1CCCCC[C@H]1COC(=O)N[C@@H](Cc1coc2ccccc12)B(O)O)N1CCC(F)(F)C1 [Example 68, ((R)-2-(benzofuran-3-yl)-1-(((((S)-1-(2-cyano-4-(3,3-difluoropyrrolidin-1-yl)-4-methylpent-2-enoyl)azepan-2-yl)methoxy)carbonyl)amino)ethyl)boronic acid] | 2.5 nM | 447 nM
3 | CC(C)(C)C=C(C#N)C(=O)N1CCOC[C@@H]1COC(=O)N[C@@H](Cc1ccccc1)B(O)O [Example 69, ((R)-1-(((((R)-4-(2-cyano-4,4-dimethylpent-2-enoyl)morpholin-3-yl)methoxy)carbonyl)amino)-2-phenylethyl)boronic acid] | 3.2 nM | 670 nM
4 | COc1ccc(C[C@H](NC(=O)OC[C@H]2CCCCN2C(=O)C(C#N)=CC(C)(C)C)B(O)O)cc1 [Example 70, ((R)-1-(((((R)-1-(2-cyano-4,4-dimethylpent-2-enoyl)piperidin-2-yl)methoxy)carbonyl)amino)-2-(4-methoxyphenyl)ethyl)boronic acid] | 6.5 nM | 1840 nM
5 | CC(C)(C=C(C#N)C(=O)N1CCC[C@]1(C)COC(=O)N[C@@H](Cc1coc2ccccc12)B(O)O)N1CCOCC1 [Example 71, ((R)-2-(benzofuran-3-1)-1-(((((R)-1-(2-cyano-4-methyl-4-morpholinopent-2-enoyl)-2-methylpyrrolidin-2-yl)methoxy)carbonyl)amino)ethyl)boronic acid] | 4.5 nM | 1660 nM
6 | CC(C)(C=C(C#N)C(=O)N1CCCCC[C@@H]1COC(=O)N[C@@H](Cc1coc2ccccc12)B(O)O)N1CCC(F)(F)C1 [Example 72, ((R)-2-(benzofuran-3-yl)-1-(((((R)-1-(2-cyano-4-(3,3-difluoropyrrolidin-1-yl)-4-methylpent-2-enoyl)azepan-2-yl)methoxy)carbonyl)amino)ethyl)boronic acid] | 2.5 nM | 225 nM
7 | Cc1ccc(C[C@H](NC(=O)OC[C@H]2COCCN2C(=O)C(C#N)=CC(C)(C)C)B(O)O)cc1 [Example 73, ((R)-1-(((((R)-4-(2-cyano-4,4-dimethylpent-2-enoyl)morpholin-3-yl)methoxy)carbonyl)amino)-2-(p-tolyl)ethyl)boronic acid] | 2.7 nM | 288 nM
8 | Cc1ccc(C[C@H](NC(=O)OC[C@H]2[C@H]3C[C@H]3CN2C(=O)C(C#N)=CC(C)(C)N2CCOCC2)B(O)O)cc1 [Example 75] | 1.1 nM | 1020 nM
9 | Cc1ccc(C[C@H](NC(=O)OC[C@H]2[C@H]3C[C@H]3CN2C(=O)C(C#N)=CC(C)(C)C)B(O)O)cc1 [Example 76] | 1.2 nM | 677 nM
10 | COc1cccc(C[C@H](NC(=O)OC[C@H]2CCCCN2C(=O)C(C#N)=CC(C)(C)C)B(O)O)c1 [Example 77, ((R)-1-(((((R)-1-(2-cyano-4,4-dimethylpent-2-enoyl)piperidin-2-yl)methoxy)carbonyl)amino)-2-(3-methoxyphenyl)ethyl)boronic acid] | 13 nM | > 5000 nM
11 | COc1ccc(C[C@H](NC(=O)OC[C@H]2CCCCN2C(=O)C(C#N)=CC(C)(C)N2CCC(F)(F)C2)B(O)O)cc1 [Example 78, ((R)-1-(((((R)-1-(2-cyano-4-(3,3-difluoropyrrolidin-1-yl)-4-methylpent-2-enoyl)piperidin-2-yl)methoxy)carbonyl)amino)-2-(4-methoxyphenyl)ethyl)boronic acid] | 4.8 nM | 1270 nM
12 | CC(C)(C=C(C#N)C(=O)N1CCCC[C@@H]1COC(=O)N[C@@H](Cc1ccc(Cl)cc1)B(O)O)N1CCC(F)(F)C1 [Example 79, ((R)-2-(4-chlorophenyl)-1-(((((R)-1-(2-cyano-4-(3,3-difluoropyrrolidin-1-yl)-4-methylpent-2-enoyl)piperidin-2-yl)methoxy)carbonyl)amino)ethyl)boronic acid] | 2 nM | 578 nM
13 | CN(CC(F)F)C(C)(C)C=C(C#N)C(=O)N1CCCC[C@@H]1COC(=O)N[C@@H](Cc1ccccc1)B(O)O [Example 80, ((R)-1-(((((R)-1-(2-cyano-4-((2,2-difluoroethyl)(methyl)amino)-4-methylpent-2-enoyl)piperidin-2-yl)methoxy)carbonyl)amino)-2-phenylethyl)boronic acid] | 2 nM | 1510 nM
14 | Cc1ccc(C[C@H](NC(=O)OC[C@@H]2CCCCCN2C(=O)C(C#N)=CC(C)(C)N2CCC(F)(F)C2)B(O)O)cc1 [Example 81, ((R)-1-(((((S)-1-(2-cyano-4-(3,3-difluoropyrrolidin-1-yl)-4-methylpent-2-enoyl)azepan-2-yl)methoxy)carbonyl)amino)-2-(p-tolyl)ethyl)boronic acid] | 4.4 nM | 3840 nM
15 | Cc1ccc(C[C@H](NC(=O)OC[C@H]2CCCCCN2C(=O)C(C#N)=CC(C)(C)N2CCC(F)(F)C2)B(O)O)cc1 [Example 84, ((R)-1-(((((R)-1-(2-cyano-4-(3,3-difluoropyrrolidin-1-yl)-4-methylpent-2-enoyl)azepan-2-yl)methoxy)carbonyl)amino)-2-(p-tolyl)ethyl)boronic acid] | 2.9 nM | 445 nM
16 | CN(C)C/C=C/C(=O)N1C[C@@H]2C[C@@H]2[C@@H]1COC(=O)N[C@@H](Cc1coc2ccccc12)B(O)O [Example 87, ((R)-2-(benzofuran-3-yl)-1-(((((1S,2R,5R)-3-((E)-4-(dimethylamino)but-2-enoyl)-3-azabicyclo[3.1.0]hexan-2-yl)methoxy)carbonyl)amino)ethyl)boronic acid] | 13 nM | 1010 nM
17 | CC#CC(=O)N1C[C@@H]2C[C@@H]2[C@@H]1COC(=O)N[C@@H](Cc1coc2ccccc12)B(O)O [Example 88, ((R)-2-(benzofuran-3-yl)-1-(((((1S,2R,5R)-3-(but-2-ynoyl)-3-azabicyclo[3.1.0]hexan-2-yl)methoxy)carbonyl)amino)ethyl)boronic acid] | 7.1 nM | 263 nM
18 | C=CC(=O)N1C[C@H](F)C[C@@H]1COC(=O)N[C@@H](Cc1ccccc1)B(O)O [Example 89, ((R)-1-(((((2R,4R)-1-acryloyl-4-fluoropyrrolidin-2-yl)methoxy)carbonyl)amino)-2-phenylethyl)boronic acid] | 73 nM | 1850 nM
19 | C=CC(=O)N1CC(F)(F)C[C@@H]1COC(=O)N[C@@H](Cc1coc2ccccc12)B(O)O [Example 91, ((R)-1-(((((R)-1-acryloyl-4,4-difluoropyrrolidin-2-yl)methoxy)carbonyl)amino)-2-(benzofuran-3-yl)ethyl)boronic acid] | 2.5 nM | 320 nM
20 | Cc1ccc(C[C@H](NC(=O)OC[C@H]2[C@H]3C[C@H]3CN2C(=O)C(C#N)=CC2(C)CCOCC2)B(O)O)cc1 [Example 92, ((R)-1-(((((1S,2R,5R)-3-(2-cyano-3-(4-methyltetrahydro-2H-pyran-4-yl)acryloyl)-3-azabicyclo[3.1.]hexan-2-yl)methoxy)carbonyl)amino)-2-(p-tolyl)ethyl)boronic acid] | 1.9 nM | 2240 nM

Source: patent US11154563B2, “Immunoproteasome inhibitors” (Principia Biopharma Inc., priority 2017, dated 2021)
